The record followed here is patent US10231967B2, “Compounds and their use as BACE inhibitors” (ASTRAZENECA AB, priority 2010, dated 2019).

The subject of one test is sAPPβ release in SH-SY5Y cells. Kind of test: sAPPβ release assay. Type of test: cell-based. The note with it: Homo sapiens, SH-SY5Y, 17 h, compounds incubated 17 h, MSD detection. As for the experimental part:
Thaw cells and seed at a conc. of around 10000 cells/well in DMEM/F-12 with Glutamax, 10% FCS and 1% non-essential amino acids to a 384-well tissue culture treated plate, 100 μL cell susp/well. […] The cell medium was removed, followed by addition of 30 μL compound diluted in DMEM/F-12 with Glutamax, 10% FCS, 1% non-essential amino acids and 1% PeSt to a final conc. of 1% DMSO. The compounds were incubated with the cells for 17 h (overnight) at 37° C., 5% CO2. Meso Scale Discovery (MSD) plates were used for the detection of sAPPβ release. MSD sAPPβ plates were blocked in 1% BSA in Tris wash buffer (40 μL/well) for 1 h on shake at r.t. and washed 1 time in Tris wash buffer (40 μL/well). 20 μL of medium was transferred to the pre-blocked and washed MSD sAPPβ microplates, and the cell plates were further used in an ATP assay to measure cytotoxicity. The MSD plates were incubated with shaking at r.t. for 2 h and the media discarded. 10 μL detection antibody was added (1 nM) per well followed by incubation with shaking at r.t. for 2 h and then discarded. 40 μL Read Buffer was added per well and the plates were read in a SECTOR Imager.
For `CC1=NC2(CC(C3CCCOC3)Oc3ccc(Br)cc32)N=C1N` (single isomer, unassigned) [Example 47 Isomer 2, 6-Bromo-5′-methyl-2-(tetrahydro-2H-pyran-3-yl)spiro[chromane-4,2′-imidazole]-4′-amine], the IC50 turned out to be 657 nM.

Regarding `[2H]C([2H])([2H])O[C@H]1CC[C@]2(CC1)Cc1ccc(-c3cc(Cl)cc(C#N)c3)cc1C21N=C(C)C(N)=N1` (stereo partly drawn) [Example 125, 3-{(1r,4r)-4″-Amino-5″-methyl-4-[(^2H3)methyloxy]-3′H-dispiro[cyclohexane-1,2′-indene-1′,2″-imidazol]-6′-yl}-5-chlorobenzonitrile], the IC50 was determined as 0.5 nM. This IC50 is about 1300-fold lower than that of the compound before.

Regarding `CO[C@H]1CC[C@]2(CC1)Cc1ccc(-c3cnc(C)c(Cl)c3)cc1[C@@]21N=C(C)C(N)=N1` [Example 61, (1r,1′R,4R)-6′-(5-Chloro-6-methylpyridin-3-yl)-4-methoxy-5″-methyl-3′H-dispiro[cyclohexane-1,2′-indene-1′,2″-imidazol]-4″-amine], the IC50 turned out to be 3.1 nM. This IC50 is about 6.2-fold higher than that of the compound before.

`CC1=NC2(N=C1N)c1cc(-c3cncc(Cl)c3)ccc1CC21CCC(C(F)F)CC1` (stereo not drawn) [Example 129] had an IC50 of 417 nM.

Compound `CC1=N[C@]2(C[C@@H]([C@H]3CCCOC3)Oc3ccc(-c4cccc(Cl)c4)cc32)N=C1N` [Example 48 Isomer 8, (2S,4R)-6-(3-chlorophenyl)-5′-methyl-2-[(3S)-tetrahydro-2H-pyran-3-yl]-1′,2,3,3′-tetrahydrospiro[chromene-4,2′-imidazol]-4′-amine] yielded an IC50 of 204 nM.

`CC#Cc1cncc(-c2ccc3c(c2)C2(N=C(C)C(N)=N2)C2(CCC2)C3)c1` (stereo not drawn) [Example 56, 5″-Methyl-6′-[5-(prop-1-yn-1-yl)pyridin-3-yl]-3′H-dispiro[cyclobutane-1,2′-indene-1′,2″-imidazol]-4″-amine] returned an IC50 of 24 nM.

`CO[C@H]1CC[C@]2(CC1)Cc1ccc(C#CC3CCC3)cc1C21N=C(C)C(N)=N1` (stereo partly drawn) [Example 112, (1r,4r)-6′-(Cyclobutylethynyl)-4-methoxy-5″-methyl-3′H-dispiro[cyclohexane-1,2′-indene-1′,2″-imidazol]-4″-amine]: half-maximal inhibition (IC50) required 2 nM. Against the preceding compound, the IC50 is about 12-fold lower.

Turning to `[2H]C([2H])([2H])O[C@H]1CC[C@]2(CC1)Cc1ccc(-c3cncc(Cl)c3)cc1C21N=C(C)C(N)=N1` (stereo partly drawn) [Example 119, (1r,4r)-6′-(5-Chloropyridin-3-yl)-5′-methyl-4-[(^2H3)methyloxy]-3′H-dispiro[cyclohexane-1,2′-indene-1′,2″-imidazol]-4″-amine], the IC50 was 0.97 nM.

For `COc1cc(-c2ccc3c(c2)[C@@]2(N=C(C)C(N)=N2)[C@]2(CC[C@H](OC)CC2)C3)cc(C#N)c1F` [Example 87, 5-[(1r,1′R,4R)-4″-Amino-4-methoxy-5″-methyl-3′H-dispiro[cyclohexane-1,2′-indene-1′,2″-imidazol]-6′-yl]-2-fluoro-3-methoxybenzonitrile], the midpoint of inhibition, the IC50, lay at 0.93 nM.

The compound `CO[C@H]1CC[C@]2(CC1)Cc1ccc(-c3ccc(F)cc3F)cc1[C@@]21N=C(C)C(N)=N1` [Example 103] had an IC50 of 14 nM.

`COc1cccc(-c2ccc3c(c2)[C@@]2(N=C(C)C(N)=N2)[C@]2(CC[C@H](OC)CC2)C3)c1F` [Example 89, (1r,1′R,4R)-6′-(2-Fluoro-3-methoxyphenyl)-4-methoxy-5″-methyl-3′H-dispiro[cyclohexane-1,2′-indene-1′,2″-imidazol]-4′″-amine] registered an IC50 of 1.7 nM.

In the case of `CC#Cc1cncc(-c2ccc3c(c2)C2(CCC3)N=C(C)C(N)=N2)c1` (stereo not drawn) [Example 53, 5-Methyl-7′-(5-(prop-1-ynyl)pyridin-3-yl)-3′,4′-dihydro-2′H-spiro[imidazole-2,1′-naphthalen]-4-amine], the half-maximal inhibitory concentration (IC50) is 21 nM.

Consider `CO[C@H]1CC[C@]2(CC1)Cc1ccc(-c3cc(Br)cc(C#N)c3)cc1C21N=C(C)C(N)=N1` (stereo partly drawn) [Example 93, 3-[(1r,4r)-4″-Amino-4-methoxy-5″-methyl-3′H-dispiro[cyclohexane-1,2′-indene-1′,2″-imidazol]-6′-yl]-5-bromobenzonitrile], for which the IC50 turned out to be 0.56 nM.

For `CC1=NC2(N=C1N)c1cc(C#CC3CC3)ccc1CC21CCC1` (stereo not drawn) [Example 58, 6′-(Cyclopropylethynyl)-5″-methyl-3′H-dispiro[cyclobutane-1,2′-indene-1′,2″-imidazol]-4″-amine], half-maximal inhibition (IC50) was put at 219 nM.

Staying with this test, now noted: Homo sapiens, compounds incubated 17 h, MSD detection.
The compound `CC1=N[C@]2(N=C1N)c1cc(-c3cc(F)cc(C#N)c3)ccc1C[C@]21CC[C@@H](OC(F)F)CC1` (racemic) [Example 105, 3-[(1r,4r)-4″-Amino-4-(difluoromethoxy)-5″-methyl-3′H-dispiro[cyclohexane-1,2′-indene-1′,2″-imidazol]-6′-yl]-5-fluorobenzonitrile] yielded an IC50 of 9.7 nM.

In turn, `CC1=NC2(N=C1N)c1cc(-c3cncc(C(F)(F)F)c3)ccc1C[C@]21CC[C@@H](OC(F)F)CC1` (stereo partly drawn) [Example 107] came in with an IC50 of 7.9 nM.

On to `CC1=NC2(CCOc3ccc(NC(=O)c4ccc(C(F)(F)F)cn4)cc32)N=C1N` (stereo not drawn) [Example 13c, N-(4′-Amino-5′-methylspiro[chroman-4,2′-imidazole]-6-yl)-5-(trifluoromethyl)picolinamide], for which it took 463 nM to reach half-maximal inhibition (IC50).

The compound `CO[C@H]1CC[C@]2(CC1)Cc1ccc(-c3cc(C#N)cc(C(F)F)c3)cc1[C@@]21N=C(C)C(N)=N1` [Example 86, 3-[(1r,1′R,4R)-4″-Amino-4-methoxy-5-methyl-3′H-dispiro[cyclohexane-1,2′-indene-1′,2″-imidazol]-6′-yl]-5-(difluoromethyl)benzonitrile] came in with an IC50 of 1.1 nM.

Compound `CC1=NC2(N=C1N)c1cc(-c3cccc(Cl)c3)ccc1CC21CCOCC1` (stereo not drawn) [Example 26a, 6′-(3-Chlorophenyl)-5-methyl-2″,3″,5″,6″-tetrahydro-3′H-dispiro[imidazole-2,1′-indene-2′,4″-pyran]-4-amine] registered an IC50 of 53 nM.

As to `CC1=NC2(CCCc3ccc(-c4cncc(Cl)c4)cc32)N=C1N` (stereo not drawn) [Example 52, 7′-(5-Chloropyridin-3-yl)-5-methyl-3′,4′-dihydro-2′H-spiro[imidazole-2,1′-naphthalen]-4-amine], 91 nM corresponded to half-maximal inhibition (IC50). Compared with the last compound, the IC50 is about 1.7-fold higher.

As for `CO[C@H]1CC[C@]2(CC1)Cc1ccc(-c3cc(Cl)c(F)c(C#N)c3)cc1[C@@]21N=C(C)C(N)=N1` [Example 100, 5-[(1r,1′R,4R)-4″-amino-4-methoxy-5″-methyl-3′H-dispiro[cyclohexane-1,2′-indene-1′,2″-imidazol]-6′-yl]-3-chloro-2-fluorobenzonitrile], the IC50 was 0.59 nM.

The compound `CO[C@H]1CC[C@]2(CC1)Cc1ccc(-c3ccccc3)cc1[C@@]21N=C(C)C(N)=N1` [Example 90, (1r,1′R,4R)-4-Methoxy-5″-methyl-6′-phenyl-3′H-dispiro[cyclohexane-1,2′-indene-1′,2″-imidazol]-4″-amine] yielded an IC50 of 14 nM.

Take `CO[C@H]1CC[C@]2(CC1)Cc1ccc(NC(=O)c3ncc(Br)cn3)cc1C21N=C(C)C(N)=N1` (stereo partly drawn) [Example 20j, N-[(1r,4r)-4″-Amino-4-methoxy-5″-methyl-3′H-dispiro[cyclohexane-1,2′-indene-1′,2″-imidazol]-6′-yl]-5-bromopyrimidine-2-carboxamide]: the IC50 is 91 nM.

`COc1ccc(F)c(-c2ccc3c(c2)[C@@]2(N=C(C)C(N)=N2)[C@]2(CC[C@H](OC)CC2)C3)c1` [Example 98, (1r,1′R,4R)-6′-(2-Fluoro-5-methoxyphenyl)-4-methoxy-5″-methyl-3′H-dispiro[cyclohexane-1,2′-indene-1′,2″-imidazol]-4′″-amine] registered a 50% inhibitory concentration (IC50) of 0.82 nM.
